Structures are written as SMILES.

This assay addresses T1, TMEM16B (Mus musculus, UniProt Q8CFW1).
T1 sequence (Q8CFW1 1-1002): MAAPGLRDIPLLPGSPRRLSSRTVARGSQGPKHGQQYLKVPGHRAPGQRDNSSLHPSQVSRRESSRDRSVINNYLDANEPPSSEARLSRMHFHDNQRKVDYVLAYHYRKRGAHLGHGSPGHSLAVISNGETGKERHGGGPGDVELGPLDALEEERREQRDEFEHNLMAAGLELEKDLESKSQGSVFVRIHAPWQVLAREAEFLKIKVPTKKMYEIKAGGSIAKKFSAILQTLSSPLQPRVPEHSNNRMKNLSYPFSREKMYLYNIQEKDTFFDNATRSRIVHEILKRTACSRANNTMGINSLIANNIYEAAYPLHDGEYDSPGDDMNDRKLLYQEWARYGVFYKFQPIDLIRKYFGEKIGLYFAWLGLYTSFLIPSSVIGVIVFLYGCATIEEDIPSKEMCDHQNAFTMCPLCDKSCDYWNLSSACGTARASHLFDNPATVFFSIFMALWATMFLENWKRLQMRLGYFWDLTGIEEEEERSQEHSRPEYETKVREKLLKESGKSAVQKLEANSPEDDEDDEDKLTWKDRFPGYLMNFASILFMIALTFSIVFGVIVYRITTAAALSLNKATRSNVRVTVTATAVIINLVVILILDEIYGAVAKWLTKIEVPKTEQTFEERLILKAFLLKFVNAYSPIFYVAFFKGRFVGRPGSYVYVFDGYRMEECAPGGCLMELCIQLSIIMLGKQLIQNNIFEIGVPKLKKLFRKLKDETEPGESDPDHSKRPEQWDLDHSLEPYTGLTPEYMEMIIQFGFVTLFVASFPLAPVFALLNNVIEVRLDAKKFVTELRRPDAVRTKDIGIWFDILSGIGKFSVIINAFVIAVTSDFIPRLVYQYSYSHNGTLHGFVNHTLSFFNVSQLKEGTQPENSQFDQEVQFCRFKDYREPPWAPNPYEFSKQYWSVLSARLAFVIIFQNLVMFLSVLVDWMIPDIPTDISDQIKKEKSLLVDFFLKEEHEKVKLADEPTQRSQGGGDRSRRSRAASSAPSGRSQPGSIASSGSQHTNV
Briefly: whole-cell patch clamp of transfected HEK293 cells. It is filed as cell-based.

Take `O=C(NC1(c2ccccc2)CC1)c1c(CN2CCC(N3CCCCC3)CC2)c(-c2cccc(C(F)(F)F)c2)nc2cc(Br)ccc12` [GSKb, GSK2193874]: the EC50 turned out to be 24.2 nM.

The values are drawn from PMC8646129 (Biochemistry and Biophysics Reports, 2021).
